Data from patent publication US8623859B2, “Bradykinin B1 antagonists” (Evotec AG, priority 2008, dated 2014).
Where a name gives a salt, the structure may show the parent alone.

Molecular target: T1, human B1 (Homo sapiens, UniProt P46663)
T1 construct: host or cells: CHO-K1
T1 sequence (P46663 1-353): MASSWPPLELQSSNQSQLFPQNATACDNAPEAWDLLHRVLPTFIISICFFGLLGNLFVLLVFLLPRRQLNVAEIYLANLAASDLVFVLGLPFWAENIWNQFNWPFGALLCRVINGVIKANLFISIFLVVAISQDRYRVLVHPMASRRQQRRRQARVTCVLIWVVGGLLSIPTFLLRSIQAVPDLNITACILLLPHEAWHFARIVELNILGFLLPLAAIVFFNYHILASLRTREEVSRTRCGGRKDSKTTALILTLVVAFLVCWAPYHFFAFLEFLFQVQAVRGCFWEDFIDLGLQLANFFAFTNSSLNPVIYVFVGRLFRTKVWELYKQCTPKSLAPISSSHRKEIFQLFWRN
Test: Calcium flux assay for Bradykinin B1 antagonist, CHO-K1 cell line expressing human B1
Assay type: cell-based
Settings: CHO-K1 cells expressing human B1, agonist Lys-(Des-Arg)-Bradykinin, read-out: Potency (IC50 value against human B1)
Summary of the method: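 Inhibition of B1 agonist-evoked intracellular Ca2+ rise was followed by continuous fluorescence at 538 nm, with integrated, background-normalized signals plotted versus log compound concentration. Test compounds (eight 10-fold dilutions, triplicate, 1% DMSO final) were added 30 min at 25° C beforehand to Fluo-4AM-loaded human B1 CHO-K1 cells in pH 7.4 assay buffer.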

SMILES | IC50
COc1cc(C)c(S(=O)(=O)N(C)Cc2cc(C(=O)N3CCN(CC4CCCN(C)C4)CC3)co2)c(C)c1 (stereo not shown) [Ex 31, 4-methoxy-N,2,6-trimethyl-N-{[4-({4-[(1-methylpiperidin-3-yl)methyl]piperazin-1-yl}carbonyl)furan-2-yl]methyl}benzenesulfonamide] | 10 to 100 nM
COc1cc(C)c(S(=O)(=O)N(Cc2nc(C(=O)N3CCN(Cc4ccncc4F)CC3)co2)C2CC2)c(C)c1 [Ex 232, N-Cyclopropyl-N-{[4-({4-[(3-fluoropyridin-4-yl)methyl]piperazin-1-yl}carbonyl)-1,3-oxazol-2-yl]methyl}-4-methoxy-2,6-dimethylbenzenesulfonamide trifluoroacetate] | 100 to 1000 nM
COc1cc(C)c(S(=O)(=O)N(Cc2cc(C(=O)N(C)Cc3ccc(C4=NCCN4)cc3)co2)c2ccccc2)c(C)c1 [Ex 50, N-[4-(4,5-dihydro-1H-imidazol-2-yl)benzyl]-5-({[(4-methoxy-2,6-dimethylphenyl)sulfonyl] (phenyl)amino}methyl)-N-methylfuran-3-carboxamide] | 100 to 1000 nM
COc1cc(C)c(S(=O)(=O)N(Cc2cc(C(=O)N(C)Cc3ccc(CN4CCCC(OC)C4)cc3)co2)C2CC2)c(C)c1 (stereo not shown) [Ex 144, 5-({Cyclopropyl[(4-methoxy-2,6-dimethylphenyl)sulfonyl]amino}methyl)-N-{4-[(3-methoxypiperidin-1-yl)methyl]benzyl}-N-methylfuran-3-carboxamide] | 100 to 1000 nM
COc1cc(C)c(S(=O)(=O)N(C)Cc2cc(C(=O)N(C)Cc3ccc(C4=NCC(C)(C)CN4)cc3)co2)c(C)c1 [Ex 40, N-[4-(5,5-dimethyl-1,4,5,6-tetrahydropyrimidin-2-yl)benzyl]-5-({[(4-methoxy-2,6-dimethylphenyl)sulfonyl](methyl)amino}methyl)-N-methylfuran-3-carboxamide] | 100 to 1000 nM
COc1cc(C)c(S(=O)(=O)N(C)C(C)c2cc(C(=O)NCCc3ccc(C4=NCCN4)cc3)co2)c(C)c1 (stereo not shown) [Ex 85, N-{2-[4-(4,5-dihydro-1H-imidazol-2-yl)phenyl]ethyl}-5-(1-{[(4-methoxy-2,6-dimethylphenyl)sulfonyl](methyl)amino}ethyl)furan-3-carboxamide trifluoroacetamide] | 100 to 1000 nM
COc1cc(C)c(S(=O)(=O)N(Cc2nc(C(=O)N3CCN(Cc4ccccn4)CC3)co2)C2CC2)c(C)c1 [Ex 227, N-Cyclopropyl-4-methoxy-2,6-dimethyl-N-[(4-{[4-(pyridin-2-ylmethyl)piperazin-1-yl]carbonyl}-1,3-oxazol-2-yl)methyl]benzenesulfonamide trifluoroacetate] | 100 to 1000 nM
COc1cc(C)c(S(=O)(=O)N(Cc2nc(C(=O)N3CCN(Cc4c(Cl)cncc4Cl)CC3)co2)C2CC2)c(C)c1 [Ex 233, N-Cyclopropyl-N-{[4-({4-[(3,5-dichloropyridin-4-yl)methyl]piperazin-1-yl}carbonyl)-1,3-oxazol-2-yl]methyl}-4-methoxy-2,6-dimethylbenzenesulfonamide trifluoroacetate] | 10 to 100 nM
COc1cc(C)c(S(=O)(=O)N(Cc2cc(C(=O)N3CCCN(CCCN4CCCC4)CC3)co2)C2CC2)c(C)c1 [Ex 116, N-Cyclopropyl-4-methoxy-2,6-dimethyl-N-[(4-{[4-(3-pyrrolidin-1-ylpropyl)-1,4-diazepan-1-yl]carbonyl}furan-2-yl)methyl]benzenesulfonamide trifluoroacetate] | 10 to 100 nM
COc1cc(C)c(S(=O)(=O)N(C)Cc2cc(C(=O)NCc3ccc(CN4CCCC4)cc3)co2)c(C)c1 [Ex 37, 5-({[(4-methoxy-2,6-dimethylphenyl)sulfonyl](methyl)amino}methyl)-N-[4-(pyrrolidin-1-ylmethyl)benzyl]furan-3-carboxamide] | 100 to 1000 nM
COc1cc(C)c(S(=O)(=O)N(Cc2nc(C(=O)N3CCN(Cc4ccc(C(F)(F)F)nc4)CC3)co2)C2CC2)c(C)c1 [Ex 236, N-Cyclopropyl-4-methoxy-2,6-dimethyl-N-({4-[(4-{[6-(trifluoromethyl)pyridin-3-yl]methyl}piperazin-1-yl)carbonyl]-1,3-oxazol-2-yl}methyl)benzenesulfonamide trifluoroacetate] | 10 to 100 nM
COc1cc(C)c(S(=O)(=O)N(C)Cc2nnc(C(=O)N3CCN(CCCN(C)C)CC3)o2)c(C)c1 [Ex 279, N-{[5-({4-[3-(Dimethylamino)propyl]piperazin-1-yl}carbonyl)-1,3,4-oxadiazol-2-yl]methyl}-4-methoxy-N,2,6-trimethylbenzenesulfonamide] | 10 to 100 nM
COc1cc(C)c(S(=O)(=O)N(Cc2nnc(C(=O)N3CCN(CCCN(C)C)CC3)o2)C2CC2)c(C)c1 [Ex 276, N-Cyclopropyl-N-{[5-({4-[3-(dimethylamino)propyl]piperazin-1-yl}carbonyl)-1,3,4-oxadiazol-2-yl]methyl}-4-methoxy-2,6-dimethylbenzenesulfonamide] | 10 to 100 nM
COc1cc(C)c(S(=O)(=O)N(Cc2cc(C(=O)N(C)Cc3ccc(CN4CCC(O)C4)cc3)co2)C2CC2)c(C)c1 (stereo not shown) [Ex 141, 5-({Cyclopropyl[(4-methoxy-2,6-dimethylphenyl)sulfonyl]amino}methyl)-N-{4-[(3-hydroxypyrrolidin-1-yl)methyl]benzyl}-N-methylfuran-3-carboxamide] | 10 to 100 nM
COc1cc(C)c(S(=O)(=O)N(Cc2noc(C(=O)N(C)Cc3ccc(CN4CCCC4)cc3)n2)C2CC2)c(C)c1 [Ex 306, 3-({Cyclopropyl[(4-methoxy-2,6-dimethylphenyl)sulfonyl]amino}methyl)-N-methyl-N-[4-(pyrrolidin-1-ylmethyl)benzyl]-1,2,4-oxadiazole-5-carboxamide trifluoroacetate] | < 10 nM
COc1cc(C)c(S(=O)(=O)N(C)Cc2cc(C(=O)N(C)Cc3ccc(CN4CCC(N(C)C)C4)cc3)co2)c(C)c1 (stereo not shown) [Ex 136, N-(4-{[3-(Dimethylamino)pyrrolidin-1-yl]methyl}benzyl)-5-({[(4-methoxy-2,6-dimethylphenyl)sulfonyl](methyl)amino}methyl)-N-methylfuran-3-carboxamide] | 10 to 100 nM
COc1cc(C)c(S(=O)(=O)N(Cc2nnc(C(=O)N3CCN(C4CCN(C)CC4)CC3)o2)C2CC2)c(C)c1 [Ex 271, N-Cyclopropyl-4-methoxy-2,6-dimethyl-N-[(5-{[4-(1-methylpiperidin-4-yl)piperazin-1-yl]carbonyl}-1,3,4-oxadiazol-2-yl)methyl]benzenesulfonamide] | 10 to 100 nM
CN(CCc1ccc(C2=NCCN2)cc1)C(=O)c1coc(CN(C2CC2)S(=O)(=O)c2c(Cl)cc(Cl)cc2Cl)n1 [Ex 215, 2-({Cyclopropyl[(2,4,6-trichlorophenyl)sulfonyl]amino}methyl)-N-{2-[4-(4,5-dihydro-1H-imidazol-2-yl)phenyl]ethyl}-N-methyl-1,3-oxazole-4-carboxamide trifluoroacetate] | 10 to 100 nM
COc1cc(C)c(S(=O)(=O)N(Cc2nc(C(=O)N3CCN(CCCN4CCCC4)CC3)co2)C2CC2)c(C)c1 [Ex 197, N-Cyclopropyl-4-methoxy-2,6-dimethyl-N-[(4-{[4-(3-pyrrolidin-1-ylpropyl)piperazin-1-yl]carbonyl}-1,3-oxazol-2-yl)methyl]benzenesulfonamide trifluoroacetate] | < 10 nM
CN(CCc1ccc(C2=NCCN2)cc1)C(=O)c1coc(CN(C)S(=O)(=O)c2ccc(Cl)cc2Cl)c1 [Ex 22, 5-({[(2,4-dichlorophenyl)sulfonyl](methyl)amino}methyl)-N-{2-[4-(4,5-dihydro-1H-imidazol-2-yl)phenyl]ethyl}-N-methylfuran-3-carboxamide] | 100 to 1000 nM
CCN(Cc1cc(C(=O)N(C)CCc2ccc(C3=NCCN3)cc2)co1)S(=O)(=O)c1c(C)cc(OC)cc1C [Ex 47, N-{2-[4-(4,5-dihydro-1H-imidazol-2-yl)phenyl]ethyl}-5-({ethyl[(4-methoxy-2,6-dimethylphenyl)sulfonyl]amino}methyl)-N-methylfuran-3-carboxamide] | < 10 nM
COc1cc(C)c(S(=O)(=O)N(C)Cc2nc(C(=O)N(C)Cc3ccc(C4=NCCN4)cc3)cs2)c(C)c1 [Ex 81, N-[4-(4,5-dihydro-1H-imidazol-2-yl)benzyl]-2-({[(4-methoxy-2,6-dimethylphenyl)sulfonyl](methyl)amino}methyl)-N-methyl-1,3-thiazole-4-carboxamide] | 100 to 1000 nM
COc1cc(C)c(S(=O)(=O)N(C)Cc2cc(C(=O)NCCc3ccc(C4=NC(C)CN4)cc3)co2)c(C)c1 (stereo not shown) [Ex 7, 5-({[(4-methoxy-2,6-dimethylphenyl)sulfonyl](methyl)amino}methyl)-N-{2-[4-(4-methyl-4,5-dihydro-1H-imidazol-2-yl)phenyl]ethyl}furan-3-carboxamide] | < 10 nM
COc1cc(C)c(S(=O)(=O)N(Cc2nc(C(=O)N3CCN(CCc4ccccn4)CC3)co2)C2CC2)c(C)c1 [Ex 228, N-Cyclopropyl-4-methoxy-2,6-dimethyl-N-[(4-{[4-(2-pyridin-2-ylethyl)piperazin-1-yl]carbonyl}-1,3-oxazol-2-yl)methyl]benzenesulfonamide trifluoroacetate] | 10 to 100 nM
COc1cc(C)c(S(=O)(=O)N(Cc2nc(C(=O)N3CCC(O)(/C=C/c4ccncc4)CC3)co2)C2CC2)c(C)c1 [Ex 241, N-Cyclopropyl-N-{[4-({4-hydroxy-4-[(E)-2-pyridin-4-ylethenyl]piperidin-1-yl}carbonyl)-1,3-oxazol-2-yl]methyl}-4-methoxy-2,6-dimethylbenzenesulfonamide trifluoroacetate] | 10 to 100 nM
